In US9845322B2 (Hoffmann-La Roche Inc., priority 2016, dated 2017) one finds IC50 data, which are given here for 10 compounds.

The term IC50 denotes the midpoint of a concentration-inhibition curve.

The subject of experiment [1] is HBsAg secretion in HepG2.2.15 cells. Description: HBsAg assay (chemiluminescence immunoassay of secreted HBsAg in culture supernatant). It counts as cell-based, HBV. To be noted: concentration at which HBsAg secretion was reduced by 50% compared to the no drug control, read-out: IC50 (HBsAg assay). The method, boiled down:
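HepG2.2.15 cells (1.5×10^4/well, duplicate) treated with three-fold compound dilutions, 1% DMSO final, DMSO as no-drug control. Secreted HBsAg in supernatant quantified semi-quantitatively by chemiluminescence immunoassay; IC50 is concentration reducing HBsAg 50% versus no-drug control.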

The subject of experiment [2] is HBV DNA production in HepG2.2.15 cells. Kind of experiment: HBV DNA assay (real-time qPCR/TaqMan of extracellular HBV DNA in cell supernatant). The settings on record: Hepatitis B virus, 144 h, extracellular HBV DNA copy number, six days after initial administration, read-out: IC50 (Anti HBV DNA production activity). Format: cell-based. Here is the method:
HepG2.2.15 cells (Acs et al. Proc Natl Acad Sci USA, 84, (1987), 4641-4), a constitutively HBV-expressing cell line were cultured in DMEM+Glutamax-I medium (Invitrogen, Carlsbad, Calif., USA), supplemented with 10% fetal bovine serum (Invitrogen) and G418 (Invitrogen) at a final concentration of 200 mg/L and maintained in 5% CO2 at 37° C.
The assay employs real-time qPCR (TaqMan) to directly measure extracellular HBV DNA copy number in the cell supernatant. HepG2.2.15 cells were plated in 96-well microtiter plates before treatment with complete medium (DMEM, Glutamax, 10% FBS, 1% Penicillin/Streptomycin, 250 μg/mL Genetycin, final DMSO concentration is 1%). Only the interior wells were utilized to reduce “edge effects” observed during cell culture, the exterior wells were filled with complete medium to help minimize sample evaporation. The HepG2.2.15 cells were treated 1 h later with various concentrations of a test compound in duplicate (top concentration used at 5 μM, 2 μM or 0.5 μM according to the HBsAg IC50 observed, with ⅓ successive dilutions (total of 10 dilutions). Six days following the initial administration of the test compound, the cell culture supernatant was collected; DNA extraction was performed by automated system (Magnapure) and then used in a real-time qPCR/TaqMan assay to determine HBV DNA copy numbers. Antiviral activity was calculated from the reduction in HBV DNA levels (IC50). The compounds of the present invention were tested for their capacity to inhibit HBV DNA as described herein.
Background: Quantitative PCR measures a nucleic acid by following its amplification.

[3] abbreviates: Hepatitis B virus, HepG2.2.15, HepG2.2.15 cells.

Read-outs that look alike come from different tables or passages of the source.

As to `CC1c2cnc(-c3ncccn3)nc2CCN1c1cc(OCCCCCC(N)=O)cc(F)n1` (single isomer, unassigned; (-)) [Example 165, (−)-6-[[2-fluoro-6-[5-methyl-2-pyrimidin-2-yl-7,8-dihydro-5H-pyrido[4,3-d]pyrimidin-6-yl]-4-pyridyl]oxy]hexanamide], the IC50 is 13 nM in experiment [1] (setting [3]) and less than 1 nM in experiment [2].
On to `CC1c2cnc(-c3ncccn3)nc2CCN1c1cc(N2CCCC2)cc(F)n1` (single isomer, unassigned; (-)) [Example 200, (−)-6-(6-fluoro-4-pyrrolidin-1-yl-2-pyridyl)-5-methyl-2-pyrimidin-2-yl-7,8-dihydro-5H-pyrido[4,3-d]pyrimidine], for which the IC50 was 2 nM in experiment [1] (HepG2.2.15 cells) and less than 1 nM in experiment [2].
`CNc1cc(F)nc(N2CCc3nc(-c4ncccn4)ncc3C2C)c1` (single isomer, unassigned; (-)) [Example 203, (−)-2-fluoro-N-methyl-6-[5-methyl-2-pyrimidin-2-yl-7,8-dihydro-5H-pyrido[4,3-d]pyrimidin-6-yl]pyridin-4-amine]: the IC50 is 6 nM in experiment [1] (setting [3]) and 0.16 nM in experiment [2].
For `CC1c2cnc(-c3ncccn3)nc2CCN1c1cc(N(C)C)cc(F)n1` (single isomer, unassigned; (-)) [Example 207, (−)-2-fluoro-N,N-dimethyl-6-[5-methyl-2-pyrimidin-2-yl-7,8-dihydro-5H-pyrido[4,3-d]pyrimidin-6-yl]pyridin-4-amine], the figures for the IC50 in experiment [1] (HepG2.2.15 cells) and in experiment [2] were 2 nM and 0.34 nM, respectively.
For the compound `CC1c2cnc(-c3ncccn3)nc2CCN1c1cc(F)c(F)c(OCCCCC(N)=O)c1` (centres unmarked) [Example 64, 5-[2,3-difluoro-5-(5-methyl-2-pyrimidin-2-yl-7,8-dihydro-5H-pyrido[4,3-d]pyrimidin-6-yl)phenoxy]pentanamide], the IC50 was found to be 62 nM in experiment [1] (setting [3]) and 4 nM in experiment [2].
Taken in the same sequence, the figures for `CC1c2cnc(-c3ncccn3)nc2CCN1c1cc(F)c(F)c(OCCCCCCC(=O)O)c1` (centres unmarked) [Example 86, 7-[2,3-difluoro-5-(5-methyl-2-pyrimidin-2-yl-7,8-dihydro-5H-pyrido[4,3-d]pyrimidin-6-yl)phenoxy]heptanoic acid] were 100 nM and 1 nM.
`CC1c2cnc(-c3ncccn3)nc2CCN1c1cc(F)c(F)c(OCCCCCCC(N)=O)c1` (centres unmarked) [Example 87, 7-[2,3-difluoro-5-(5-methyl-2-pyrimidin-2-yl-7,8-dihydro-5H-pyrido[4,3-d]pyrimidin-6-yl)phenoxy]heptanamide]: the IC50 was 73 nM in experiment [1] (setting [3]) and 10 nM in experiment [2].
As to `CC1c2cnc(-c3ncccn3)nc2CCN1c1cc(OCC(F)F)cc(F)n1` (centres unmarked) [Example 149, 6-[4-(2,2-difluoroethoxy)-6-fluoro-2-pyridyl]-5-methyl-2-pyrimidin-2-yl-7,8-dihydro-5H-pyrido[4,3-d]pyrimidine], the IC50 in experiment [1] (setting [3]) was 10 nM; in experiment [2], 1 nM.
Taken in the same sequence, the figures for `CC1c2cnc(-c3ncccn3)nc2CCN1c1cc(F)cc(N2CCNC(=O)C2)n1` (centres unmarked) [Example 214, 4-[4-fluoro-6-(5-methyl-2-pyrimidin-2-yl-7,8-dihydro-5H-pyrido[4,3-d]pyrimidin-6-yl)-2-pyridyl]piperazin-2-one] were 22 nM and 7.2 nM.
Taken in the same sequence, the figures for `CC1c2cnc(-c3ncccn3)nc2CCN1c1cc(N2CCNC(=O)C2)cc(F)n1` (centres unmarked) [Example 215, 4-[2-fluoro-6-(5-methyl-2-pyrimidin-2-yl-7,8-dihydro-5H-pyrido[4,3-d]pyrimidin-6-yl)-4-pyridyl]piperazin-2-one] were 64 nM and 0.81 nM.
